Assay results as given in US20250257059A1, “PROTEIN TYROSINE PHOSPHATASE INHIBITORS AND USES THEREOF” (Nerio Therapeutics, Inc., priority 2022, published 2025).
pIC50: −log10 of the molar value. Values joined by “and” are separate entries in the source; they are usually repeats but may differ in a detail not shown here. Identical values can stand only once. Like-named read-outs stand apart in the source and are kept apart here.

How the values were obtained:
[1] = biological target: full-length human PTPN2 (TC45) (1-387) (Homo sapiens (Human), UniProt P17706); experiment: Enzymatic assay used to determine potency of PTPN2 inhibitors (full length PTPN2 DiFMUP assay); assay type: biochemical; details: 0.5 nM PTPN2, 100 μM DiFMUP, 30 min at room temperature
full-length human PTPN2 (TC45) (1-387), sequence (P17706 other isoform, or with tags, fused parts or gaps): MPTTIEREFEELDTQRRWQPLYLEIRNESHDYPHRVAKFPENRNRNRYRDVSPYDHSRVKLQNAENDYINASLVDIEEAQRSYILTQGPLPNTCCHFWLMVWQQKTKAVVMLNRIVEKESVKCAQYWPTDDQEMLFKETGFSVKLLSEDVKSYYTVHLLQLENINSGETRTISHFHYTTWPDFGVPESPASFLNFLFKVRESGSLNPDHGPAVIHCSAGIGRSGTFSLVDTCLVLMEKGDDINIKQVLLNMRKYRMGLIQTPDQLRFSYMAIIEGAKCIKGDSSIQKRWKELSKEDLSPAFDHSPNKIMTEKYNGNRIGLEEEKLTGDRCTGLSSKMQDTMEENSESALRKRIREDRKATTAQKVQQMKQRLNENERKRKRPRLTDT
Description: Compound activity was determined in an in vitro enzymatic assay using untagged, full-length human PTPN2 (TC45) (1-387) protein. PTPN2 was produced in E. coli as a GST-TEV fusion and the GST was removed by TEV digestion, followed by additional purification to yield full-length PTPN2 (SEQ ID 1). PTPN2 enzyme was diluted in assay buffer (50 mM HEPES pH7.5, 0.2 mM EDTA, 1 mM DTT, 0.02% Brij-35, 0.02% BSA) to a final concentration of 0.5 nM and added to black 384-well non-binding plates (Greiner, 781900). Compounds were subsequently added using a Tecan D300e dispenser. Following a 10 min incubation at room temperature, DiFMUP substrate (ThermoFisher, D22065) was added to a final concentration of 100 μM. Plates were transferred to a SpectraMax plate reader (Molecular Devices) and fluorescence intensity was measured (ex 358, em 455) after a 30 min incubation at room temperature. […] A four-parameter curve fit was used to determine IC50 values from % inhibition data.

[2] = tested on: murine B16F10 melanoma cell line; experiment: B16F10 IFNγ-induced cellular growth inhibition assay (xCELLigence RTCA); assay type: cell-based; details: B16F10 cells, 1 ng/mL mouse IFNγ, AUC of growth curve, read-out: B16 IFNγ Mediated Growth Inhibition Assay: AVG IC50
Description: Compound activity was determined using an interferon gamma (IFNγ)-induced cellular growth inhibition assay with the murine B16F10 melanoma cell line on an Agilent xCELLigence Real-Time Cell Analysis platform (RTCA). RTCA E-Plate View 96 plates (Agilent, 300601010) were pre-equilibrated with 50 μL of assay media (DMEM+10% FBS, Gibco 10566-024, Gibco 10082-147) at 37° C. in a humidified incubator before taking an initial measurement of impedance (sweep). B16F10 cells cultured in assay media were dissociated with TrypLE Express (Gibco 12605-010) for five minutes at 37° C., diluted in 3 volumes of assay buffer, centrifuged for 5 minutes at 500×g at room temperature before diluting cells to 7,700 cells/mL in assay media, plating 130 μL/well (1,000 cells/well) in the inner 60 wells of the assay plate, and adding 150 μL of assay media to the outer wells of the plate. Cells were incubated at room temperature for 20 min to allow cells to settle before placing them in the xCELLigence reader and incubating overnight at 37° C., sweeping wells every 15 minutes. After 24 hours, well readings were paused, plates were removed from the incubator and compounds were added using a Tecan D300e dispenser. All wells were normalized to a final concentration of 0.5% DMSO. Following a 30 min incubation at 37° C., recombinant mouse IFNγ (R&D Systems™ 485MI100) was diluted to 10 ng/mL in assay media and 20 μL was added to assay wells (1 ng/mL final concentration). Assay plates were placed in the xCELLigence reader and swept every 15 minutes.

## O=C1CN(c2c(O)cc(CCN3CCC4(CCCCC4)C3)cc2F)S(=O)(=O)N1 [Example 116]
[1]
  pIC50: 8.70
[2]; Mus musculus, B16-F10, 48 h
  pIC50: 6.76

## O=C1CN(c2c(O)cc(CCN3CCC(F)C3)cc2F)S(=O)(=O)N1 (stereo not shown) [Example 92]
[1]
  pIC50: 8.52
[2]; Mus musculus, B16-F10, 48 h
  pIC50: 6.30

## O=C1CN(c2c(O)cc(CC3CCCN(Cc4ccn[nH]4)C3)cc2F)S(=O)(=O)N1 (stereo not shown) [Example 53]
[1]
  pIC50: 7.46
[2]; Mus musculus, B16-F10, 48 h
  pIC50: < 4.00

## O=C1CN(c2c(O)cc(CCN3CC(CF)C3)cc2F)S(=O)(=O)N1 [Example 141]
[1]
  pIC50: 8.52
[2]; Mus musculus, B16-F10, 48 h
  pIC50: 6.43

## O=C1CN(c2c(O)cc(CC3CCCN(CC4CCCC4)C3)cc2F)S(=O)(=O)N1 (stereo not shown) [Example 34]
[1]
  pIC50: 7.37
[2]; Mus musculus, B16-F10, 48 h
  pIC50: 5.00

## CC[C@@H]1CCN(CCc2cc(O)c(N3CC(=O)NS3(=O)=O)c(F)c2)C1 [Example 110]
[1]
  pIC50: 8.70
[2]; Mus musculus, B16-F10, 48 h
  pIC50: 6.90

## CC(C)(C)CN1CCC(Cc2cc(O)c(N3CC(=O)NS3(=O)=O)c(F)c2)C1 (stereo not shown) [Example 20]
[1]
  pIC50: 7.82
[2]; Mus musculus, B16-F10, 48 h
  pIC50: 5.58

## C[C@H]1CCN(CCc2cc(O)c(N3CC(=O)NS3(=O)=O)c(F)c2)C1 [Example 139]
[1]
  pIC50: 8.70
[2]; Mus musculus, B16-F10, 48 h
  pIC50: 6.29

## CCCN1CCC(Cc2cc(O)c(N3CC(=O)NS3(=O)=O)c(F)c2)C1 (stereo not shown) [Example 11]
[1]
  pIC50: 7.74
[2]; Mus musculus, B16-F10, 48 h
  pIC50: 5.29

## O=C1CN(c2c(O)cc(CCC3CCCN3)cc2F)S(=O)(=O)N1 (stereo not shown) [Example 66]
[1]
  pIC50: 7.80
[2]; Mus musculus, B16-F10, 48 h
  pIC50: 5.37

## CCCN1CCCC(Cc2cc(O)c(N3CC(=O)NS3(=O)=O)c(F)c2)C1 (stereo not shown) [Example 49]
[1]
  pIC50: 7.02
[2]; Mus musculus, B16-F10, 48 h
  pIC50: < 4.42

## O=C1CN(c2c(O)cc(CC3CCCN(CC4CC4)C3)cc2F)S(=O)(=O)N1 (stereo not shown) [Example 37]
[1]
  pIC50: 7.18
[2]; Mus musculus, B16-F10, 48 h
  pIC50: 4.33

## O=C1CN(c2c(O)cc(CCN3CCC(CC(F)(F)F)C3)cc2F)S(=O)(=O)N1 (stereo not shown) [Example 130]
[1]
  pIC50: 9.00
[2]; Mus musculus, B16-F10, 48 h
  pIC50: 6.68

## CC(C)(C)C1CN(CCc2cc(O)c(N3CC(=O)NS3(=O)=O)c(F)c2)C1 [Example 129]
[1]
  pIC50: 8.70
[2]; Mus musculus, B16-F10, 48 h
  pIC50: 6.18

## C[C@@H]1CCN(CCc2cc(O)c(N3CC(=O)NS3(=O)=O)c(F)c2)C1 [Example 138]
[1]
  pIC50: 8.70
[2]; Mus musculus, B16-F10, 48 h
  pIC50: 6.39

## CCCCCN1CCCC(Cc2cc(O)c(N3CC(=O)NS3(=O)=O)c(F)c2)C1 (stereo not shown) [Example 33]
[1]
  pIC50: 7.46
[2]; Mus musculus, B16-F10, 48 h
  pIC50: 4.54

## CC(C)CN1CCCC(Cc2cc(O)c(N3CC(=O)NS3(=O)=O)c(F)c2)C1 (stereo not shown) [Example 50]
[1]
  pIC50: 7.04
[2]; Mus musculus, B16-F10, 48 h
  pIC50: < 4.00

## CC(C)C[C@H]1CCN(CCc2cc(O)c(N3CC(=O)NS3(=O)=O)c(F)c2)C1 (single isomer, unassigned) [Example 119]
[1]
  pIC50: 8.70 and 8.52
[2]; 48 hours
  pIC50: 5.80
[2]; Mus musculus, B16-F10, 48 h
  pIC50: 5.61

## CC(C)CCN1CCCC[C@@H]1Cc1ccc(O)c(N2CC(=O)NS2(=O)=O)c1F (single isomer, unassigned) [Example 81]
[1]
  pIC50: 8.52
[2]; Mus musculus, B16-F10, 48 h
  pIC50: 6.44

## O=C1CN(c2c(O)cc(CCN3CCCCC3)cc2F)S(=O)(=O)N1 [Example 90]
[1]
  pIC50: 8.70
[2]; Mus musculus, B16-F10, 48 h
  pIC50: 5.91

## CCC1CCCN1CCc1cc(O)c(N2CC(=O)NS2(=O)=O)c(F)c1 (stereo not shown) [Example 84, 5-(4-(2-(2-ethylpyrrolidin-1-yl)ethyl)-2-fluoro-6-hydroxyphenyl)-1,2,5-thiadiazolidin-3-one 1,1-dioxide]
[1]
  pIC50: 7.89
[2]; Mus musculus, B16-F10, 48 h
  pIC50: 4.86

## O=C1CN(c2c(O)cc(CCN3CC[C@@H](F)C3)cc2F)S(=O)(=O)N1 [Example 95]
[1]
  pIC50: 8.70
[2]; Mus musculus, B16-F10, 48 h
  pIC50: 6.36

## CC(C)C1CN(CCc2cc(O)c(N3CC(=O)NS3(=O)=O)c(F)c2)C1 [Example 132]
[1]
  pIC50: 8.52
[2]; 48 hours
  pIC50: 6.24

## O=C1CN(c2c(O)cc(CC3CCCN(CC4CCC4)C3)cc2F)S(=O)(=O)N1 (stereo not shown) [Example 32]
[1]
  pIC50: 7.46
[2]; Mus musculus, B16-F10, 48 h
  pIC50: 4.83

## CC(C)CN1CCC(CCc2cc(O)c(N3CC(=O)NS3(=O)=O)c(F)c2)C1 (stereo not shown) [Example 63]
[1]
  pIC50: 7.12
[2]; Mus musculus, B16-F10, 48 h
  pIC50: < 4.00

## CCCCN1CCCC(Cc2cc(O)c(N3CC(=O)NS3(=O)=O)c(F)c2)C1 (stereo not shown) [Example 38]
[1]
  pIC50: 6.81
[2]; Mus musculus, B16-F10, 48 h
  pIC50: < 4.00

## CN1CCCC(Cc2cc(O)c(N3CC(=O)NS3(=O)=O)c(F)c2)C1 (stereo not shown) [Example 31, 5-(2-fluoro-6-hydroxy-4-((1-methylpiperidin-3-yl)methyl)phenyl)-1,2,5-thiadiazolidin-3-one 1,1-dioxide]
[1]
  pIC50: 7.33
[2]; Mus musculus, B16-F10, 48 h
  pIC50: 4.53

## CC(C)CN1CCC(Cc2cc(O)c(N3CC(=O)NS3(=O)=O)c(F)c2)C1 (stereo not shown) [Example 9]
[1]
  pIC50: 7.68
[2]; Mus musculus, B16-F10, 48 h
  pIC50: 4.88

## CCCC1NCCC1Cc1cc(O)c(N2CC(=O)NS2(=O)=O)c(F)c1 (stereo not shown) [Example 28]
[1]
  pIC50: 7.64
[2]; Mus musculus, B16-F10, 48 h
  pIC50: < 4.24

## O=C1CN(c2c(O)cc(CC3CCN(CC4CC4)C3)cc2F)S(=O)(=O)N1 (stereo not shown) [Example 10]
[1]
  pIC50: 7.30
[2]; 48 hours
  pIC50: 4.76
